{"source": "paper PMC12888861", "about": "“Antibacterial activity of enmetazobactam against Acinetobacter spp.: a molecular dissection of mechanism of action and resistance determinants” (Antimicrobial Agents and Chemotherapy, 2025)", "key": {"[1]": {"target": "PBP1a (Acinetobacter baumannii, UniProt A0ABX6CK30)", "sequence (A0ABX6CK30 entry or part of it)": "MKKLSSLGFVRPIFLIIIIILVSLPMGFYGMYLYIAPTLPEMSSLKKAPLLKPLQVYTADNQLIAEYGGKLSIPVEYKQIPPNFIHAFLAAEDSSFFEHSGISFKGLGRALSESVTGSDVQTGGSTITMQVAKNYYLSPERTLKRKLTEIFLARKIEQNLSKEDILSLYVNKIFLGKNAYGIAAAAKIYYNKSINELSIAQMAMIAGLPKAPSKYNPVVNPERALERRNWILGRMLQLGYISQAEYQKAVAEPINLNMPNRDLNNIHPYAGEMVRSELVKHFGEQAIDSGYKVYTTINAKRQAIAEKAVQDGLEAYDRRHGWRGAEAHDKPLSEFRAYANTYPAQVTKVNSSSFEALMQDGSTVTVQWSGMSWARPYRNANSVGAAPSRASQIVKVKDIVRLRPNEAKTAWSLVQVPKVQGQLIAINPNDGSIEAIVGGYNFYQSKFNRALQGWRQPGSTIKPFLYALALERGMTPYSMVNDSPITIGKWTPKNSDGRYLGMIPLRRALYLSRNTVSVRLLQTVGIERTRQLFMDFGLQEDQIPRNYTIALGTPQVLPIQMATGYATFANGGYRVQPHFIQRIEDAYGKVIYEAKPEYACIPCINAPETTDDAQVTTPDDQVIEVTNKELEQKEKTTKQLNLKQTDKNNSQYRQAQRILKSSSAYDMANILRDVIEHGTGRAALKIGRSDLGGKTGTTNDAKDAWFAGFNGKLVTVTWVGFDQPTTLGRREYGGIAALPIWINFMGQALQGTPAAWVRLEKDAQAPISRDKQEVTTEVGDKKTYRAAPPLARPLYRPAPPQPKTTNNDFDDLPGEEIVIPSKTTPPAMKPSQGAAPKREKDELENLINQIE", "assay": "PBP-binding assay, Bocillin FL competition, membrane preparations", "conditions": "A. baumannii ATCC 19606, read-out: IC50 (binding affinity) PBP1a", "method": "(§1) The possible involvement of A. baumannii PBPs as enmetazobactam targets was evaluated. […] The PBP-binding IC50 was determined in membrane preparations from three independent experiments, following previously described protocols ([13]).\n(§2) Briefly, A. baumannii cultures were grown in Mueller-Hinton broth at 37°C with shaking at 180 rpm, and 400 mL were collected in late log phase (OD₆₀₀nm= 1), washed, and resuspended in 20 mM KH₂PO₄ and 140 mM NaCl (pH 7.5). After sonication, bacterial membranes were isolated by ultracentrifugation (150,000 g, 30 min). […] The Bocillin FL signal is inversely proportional to the binding capacity of the compounds tested to PBPs ([35]). The PBPs were separated by SDS-PAGE (Bio-Rad) and visualized with Odyssey M Imager (LI-COR). The IC₅₀ values were calculated using Empiria Studio software (LI-COR). The binding affinity was determined by comparing the change of the fluorescence in the presence or absence of the tested sulfones."}, "[2]": {"target": "PBP1b (Acinetobacter baumannii, UniProt A0ABX6CHI7)", "assay": "PBP-binding assay, Bocillin FL competition, membrane preparations", "conditions": "A. baumannii ATCC 19606, read-out: IC50 (binding affinity) PBP1b (converted)", "method": "as §1, §2"}, "[3]": {"target": "T1, PBP2 (Acinetobacter baumannii, UniProt D0C8Z9)", "T1 construct": "endogenous in cells; host or cells: A. baumannii ATCC 19606 membrane fraction", "T1 sequence (D0C8Z9 whole entry)": "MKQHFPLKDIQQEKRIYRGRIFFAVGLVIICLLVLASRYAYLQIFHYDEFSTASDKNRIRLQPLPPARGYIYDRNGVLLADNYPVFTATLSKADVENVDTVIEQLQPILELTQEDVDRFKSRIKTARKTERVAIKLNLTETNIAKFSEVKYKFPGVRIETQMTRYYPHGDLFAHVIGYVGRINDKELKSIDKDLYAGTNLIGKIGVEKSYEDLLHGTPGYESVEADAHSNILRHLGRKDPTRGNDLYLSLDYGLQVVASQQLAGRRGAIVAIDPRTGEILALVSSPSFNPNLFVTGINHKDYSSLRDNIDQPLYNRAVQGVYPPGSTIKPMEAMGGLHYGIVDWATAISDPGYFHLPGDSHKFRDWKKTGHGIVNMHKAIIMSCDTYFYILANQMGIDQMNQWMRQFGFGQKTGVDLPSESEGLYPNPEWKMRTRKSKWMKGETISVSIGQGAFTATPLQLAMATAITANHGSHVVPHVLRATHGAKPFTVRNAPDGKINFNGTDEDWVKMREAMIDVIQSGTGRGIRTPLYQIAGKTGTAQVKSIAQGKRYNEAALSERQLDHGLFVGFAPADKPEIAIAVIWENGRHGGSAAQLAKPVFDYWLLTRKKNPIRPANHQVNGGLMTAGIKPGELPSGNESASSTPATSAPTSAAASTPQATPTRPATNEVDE", "assay": "PBP-binding assay, Bocillin FL competition, membrane preparations", "method": "as §1, §2"}, "[4]": {"target": "PBP3 (Acinetobacter baumannii, UniProt A0ABX6CK25)", "sequence (A0ABX6CK25 entry or part of it)": "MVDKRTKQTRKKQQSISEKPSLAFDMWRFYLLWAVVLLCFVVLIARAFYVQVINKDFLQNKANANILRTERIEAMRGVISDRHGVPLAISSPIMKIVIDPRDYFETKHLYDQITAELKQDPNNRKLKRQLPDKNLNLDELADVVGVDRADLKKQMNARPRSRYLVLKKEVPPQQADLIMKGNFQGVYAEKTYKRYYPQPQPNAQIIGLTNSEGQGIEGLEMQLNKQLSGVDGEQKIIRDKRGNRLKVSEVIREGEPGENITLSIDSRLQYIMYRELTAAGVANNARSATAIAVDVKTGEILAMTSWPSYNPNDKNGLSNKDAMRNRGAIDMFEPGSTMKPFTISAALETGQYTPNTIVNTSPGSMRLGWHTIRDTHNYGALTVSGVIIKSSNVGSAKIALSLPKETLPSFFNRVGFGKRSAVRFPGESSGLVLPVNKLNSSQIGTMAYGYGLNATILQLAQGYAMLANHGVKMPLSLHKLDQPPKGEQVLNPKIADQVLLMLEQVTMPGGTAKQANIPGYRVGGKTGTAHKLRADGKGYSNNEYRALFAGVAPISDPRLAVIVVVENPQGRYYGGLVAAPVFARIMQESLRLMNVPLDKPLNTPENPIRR", "assay": "PBP-binding assay, Bocillin FL competition, membrane preparations", "method": "as §1, §2"}, "[5]": {"target": "T2, OXA-23 (Acinetobacter baumannii, UniProt Q9L4P2)", "T2 construct": "GST (N); made in house; host or cells: Escherichia coli BL21", "T2 sequence (Q9L4P2 18-273)": "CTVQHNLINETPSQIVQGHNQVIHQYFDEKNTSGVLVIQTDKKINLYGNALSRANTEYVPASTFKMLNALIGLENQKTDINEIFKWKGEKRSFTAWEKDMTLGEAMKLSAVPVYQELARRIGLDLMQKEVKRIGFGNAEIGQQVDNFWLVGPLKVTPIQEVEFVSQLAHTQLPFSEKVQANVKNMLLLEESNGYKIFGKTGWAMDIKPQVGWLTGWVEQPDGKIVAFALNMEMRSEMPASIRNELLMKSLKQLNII", "assay": "OXA-23 inhibition assay (nitrocefin hydrolysis IC50)", "format": "biochemical", "method": "(§3) The Michaelis-Menten constant (Km) was determined by fitting the data to the Michaelis-Menten equation, following established protocols ([38]). The kcat (hydrolysis rate constant of the β-lactamase) was obtained by linearization of the kinetic data ([39]). To assess the possible inhibitory capacity of enmetazobactam against the CHDLs of A. baumannii, specific OXA-23 inhibition kinetics assays were performed in a Nanoquant Infinite spectrophotometer (Tecan). […] Also, the dissociation constant (koff), which represents the rate at which the enzyme-inhibitor complex dissociates (i.e., the proportion of the enzyme-inhibitor complex that dissociates per unit of time), was determined through a jump-dilution assay that monitored OXA-23 activity recovery as the enzyme-inhibitor complex dissociated. OXA-23 (1 µM) was preincubated for 30 min at 37°C with excess of inhibitors (50× IC₅₀) to ensure full acyl-enzyme complex formation. Subsequently, the mixture was diluted 1:5,000 to allow gradual complex dissociation. […] Enzymatic activity, reflecting the progressive dissociation of the acyl-enzyme complex, was monitored spectrophotometrically at 490 nm for 8 h. The resulting progress curves were fitted using GraphPad Prism (GraphPad Software, MA, USA) to equation 1 to estimate koff, where V0 is the initial, inhibited enzyme velocity; Vs is the steady-state uninhibited enzyme velocity, and t is time."}, "[6]": {"target": "T2, OXA-23", "assay": "Jump-dilution dissociation assay (koff, t1/2) with OXA-23", "format": "biochemical", "conditions": "jump dilution, accurate koff not determinable", "method": "as §3\n(1) P=Vs×t+(V0−Vs)×[1−exp^(−koff × t)]/koff"}, "[7]": {"conditions": "A. baumannii ATCC 19606, read-out: IC50 (binding affinity) PBP3 (converted)"}}, "note": "Where two headings read alike, the source gives them in different places."}
{"compound": "C[n+]1ccn(C[C@@]2(C)[C@H](C(=O)[O-])N3C(=O)C[C@H]3S2(=O)=O)n1", "note": "[enmetazobactam]", "values": [{"measurement": "IC50", "setting": "[1]", "result": "> 204", "unit": "µM"}, {"measurement": "IC50", "setting": "[2]", "result": "> 204", "unit": "µM"}, {"measurement": "IC50", "setting": "[3]; membrane preparations, A. baumannii ATCC 19606, read-out: IC50 (binding affinity) PBP2 (converted)", "result": 11.5, "unit": "µM"}, {"measurement": "IC50", "setting": "[4]; A. baumannii ATCC 19606, listed as Enmetazobactam, read-out: IC50 (binding affinity) PBP3 (converted)", "result": 13.4, "unit": "µM"}, {"measurement": "IC50", "setting": "[4]; [7]", "result": 13.5, "unit": "µM"}, {"measurement": "IC50", "setting": "[5]; OXA-23, nitrocefin hydrolysis, 10 min preincubation at room temperature, read-out: IC50", "result": 32.4, "unit": "µM"}, {"measurement": "koff relative to that of durlobactam", "setting": "[6]", "result": "> 1,000 fold"}]}
{"compound": "CC1(C)[C@H](C(=O)O)N2C(=O)C[C@H]2S1(=O)=O", "note": "[sulbactam]", "values": [{"measurement": "IC50", "setting": "[1]", "result": "> 274", "unit": "µM"}, {"measurement": "IC50", "setting": "[2]", "result": 9.6, "unit": "µM"}, {"measurement": "IC50", "setting": "[3]; IC50 (binding affinity) PBP2, membrane preparations, A. baumannii ATCC 19606", "result": "> 274", "unit": "µM"}, {"measurement": "IC50", "setting": "[4]; [7]", "result": 9.73, "unit": "µM"}, {"measurement": "IC50", "setting": "[5]", "result": 29.2, "unit": "µM"}]}
